The numbers were not newly measured in patent US20070275941A1, “SALT SENSITIVITY AND PREVENTION OF HYPERTENSION WITH DROSPIRENONE” (priority 2006, published 2007), which cites them from elsewhere.

This data set relates to postmenopausal women with hypertension.

As to `C[C@]12CCC(=O)C=C1[C@@H]1C[C@@H]1[C@H]1[C@@H]3[C@@H]4C[C@@H]4[C@@]4(CCC(=O)O4)[C@@]3(C)CC[C@@H]12` [drospirenone], the potassium sparing effect result (clinical studies) is “demonstrated a potassium sparing effect”. The blood pressure reduction result (postmenopausal women with hypertension, alone or in combination with other agents) was “consistently and substantially reduce blood pressure”.
